# Read-outs that look alike come from different tables or passages of the source.
# Test system: A549 cells
# Assay: MTT assay, percent survival of A549 cells
# Format: cell-based
# Details: A549; for IC50: read-out: Calculated IC 50 (uM concentration)
# Experimental: 1. Prepare a suspension of A549 cells at 2×10^5 cells per mL in supplemented DMEM/F12 growth medium.
# 2. Plate 2×10^4 cells per well in a 96 well cell culture plate by adding 100 μL of stock suspension to each well.
# 3. For each platinum compound (already in solution), prepare a readily usable stock solution in DMEM/F12 medium.
# 4. For each compound generate triplicate trials of 0, 10, 20, 30, 40, 50, 60, and 70 μM concentration. This is achieved in situ by adding appropriate volumes of stock solution to each well along with the volume of untreated medium necessary to generate the desired concentration in a final volume of 200 μL.
# 5. Gently agitate plates to mix contents. Incubate at 37° C., 7% CO2 for 45 hours.
# 6. Add 20 μL of 5 mg/mL MTT solution (in PBS) to each well.
# 7. Gently agitate plates to mix contents and incubate an additional 3 hours to allow product development.
# 8. Remove plates from incubator and agitate to cause settling of formazan product.
# 9. Aspirate out liquid contents of each well using needle and syringe and discard.
# 10. Add 200 μL DMSO to each well to dissolve formazan product.
# 11. Agitate plates until all of the formazan product is in solution and no purple crystals remain on the bottom surface of the wells.
# 12. Read the absorbance of each well at […] using Varian software for Cary 50 UV-vis Spectrophotometer with fiber optic probe accessory.
# (§1) MTT assays are used for the quantitative determination of cellular proliferation and activation and for the quantitation of in vitro tumor cell sensitivity to anti-cancer compounds. The assay is based on the cleavage of the yellow tetrazolium salt MTT into purple colored formazan by metabolically active cells. Solubilized formazan product can be photometrically quantitated using an ELISA plate reader. A decrease in the number of living cells results in a decrease in total metabolic activity which leads to a decrease in color formation. Platinum complexes of the present invention were tested in MTT assays using A549 cells to determine anti-cancer cell activity. […] FIGS. 1, 2, and 4 show percent survival versus platinum complex concentration in graphical form.
# as §1, with “FIGS. 8, 9,” for “FIGS. 1, 2,”, “and 11” for “and 4”
structure (smiles),measurement,setting,value
"N.N.[Cl][Pt][Cl] [Cis-Pt, Cis-diammineoplatinum(II) dichloride, reference compound]",Average Absorbance,"Table 1, 10 μM",2.3196
same,Percent Survival,"Table 1, 10 μM",98.2423%
same,Average Absorbance,"Table 1, 20 μM",2.3228
same,Percent Survival,"Table 1, 20 μM",98.3779%
same,Average Absorbance,"Table 1, 30 μM",2.3526
same,Percent Survival,"Table 1, 30 μM",99.6400%
same,Average Absorbance,"Table 1, 40 μM",2.1315
same,Percent Survival,"Table 1, 40 μM",90.2757%
same,Average Absorbance,"Table 1, 50 μM",1.8447
same,Percent Survival,"Table 1, 50 μM",78.1288%
same,Average Absorbance,"Table 1, 60 μM",1.1039
same,Percent Survival,"Table 1, 60 μM",46.7536%
same,Average Absorbance,"Table 1, 70 μM",0.7118
same,Percent Survival,"Table 1, 70 μM",30.1470%
same,IC50,"Table 2, linear trend from percent survival vs. concentration data of Table 1",63.3 µM
same,Average Absorbance,"Table 3, 10 μM",2.4665
same,Percent Survival,"Table 3, 10 μM",100.9661%
same,Average Absorbance,"Table 3, 20 μM",2.4556
same,Percent Survival,"Table 3, 20 μM",100.5199%
same,Average Absorbance,"Table 3, 30 μM",2.2686
same,Percent Survival,"Table 3, 30 μM",92.8650%
same,Average Absorbance,"Table 3, 40 μM",1.7575
same,Percent Survival,"Table 3, 40 μM",71.9432%
same,Average Absorbance,"Table 3, 50 μM",1.2828
same,Percent Survival,"Table 3, 50 μM",52.5114%
same,Average Absorbance,"Table 3, 60 μM",0.7971
same,Percent Survival,"Table 3, 60 μM",32.6293%
same,Average Absorbance,"Table 3, 70 μM",0.6718
same,Percent Survival,"Table 3, 70 μM",27.5001%
same,Average Absorbance,"Table 4, 10 μM",0.5299
same,Percent Survival,"Table 4, 10 μM",83.1%
same,Average Absorbance,"Table 4, 20 μM",0.6575
same,Percent Survival,"Table 4, 20 μM",103.1%
same,Average Absorbance,"Table 4, 30 μM",0.497
same,Percent Survival,"Table 4, 30 μM",77.95%
same,Average Absorbance,"Table 4, 40 μM",0.4763
same,Percent Survival,"Table 4, 40 μM",74.69%
same,Average Absorbance,"Table 4, 50 μM",0.3644
same,Percent Survival,"Table 4, 50 μM",57.14%
same,Average Absorbance,"Table 4, 60 μM",0.2814
same,Percent Survival,"Table 4, 60 μM",44.13%
same,Average Absorbance,"Table 4, 70 μM",0.1854
same,Percent Survival,"Table 4, 70 μM",29.07%
same,Average Absorbance,"Table 6, 10 μM",2.3196
same,Percent Survival,"Table 6, 10 μM",98.2423%
same,Average Absorbance,"Table 6, 20 μM",2.3228
same,Percent Survival,"Table 6, 20 μM",98.3779%
same,Average Absorbance,"Table 6, 30 μM",2.3526
same,Percent Survival,"Table 6, 30 μM",99.6400%
same,Average Absorbance,"Table 6, 40 μM",2.1315
same,Percent Survival,"Table 6, 40 μM",90.2757%
same,Average Absorbance,"Table 6, 50 μM",1.8447
same,Percent Survival,"Table 6, 50 μM",78.1288%
same,Average Absorbance,"Table 6, 60 μM",1.1039
same,Percent Survival,"Table 6, 60 μM",46.7536%
same,Average Absorbance,"Table 6, 70 μM",0.7118
same,Percent Survival,"Table 6, 70 μM",30.1470%
same,Average Absorbance,"Table 8, 10 μM",2.4665
same,Percent Survival,"Table 8, 10 μM",100.9661%
same,Average Absorbance,"Table 8, 20 μM",2.4556
same,Percent Survival,"Table 8, 20 μM",100.5199%
same,Average Absorbance,"Table 8, 30 μM",2.2686
same,Percent Survival,"Table 8, 30 μM",92.8650%
same,Average Absorbance,"Table 8, 40 μM",1.7575
same,Percent Survival,"Table 8, 40 μM",71.9432%
same,Average Absorbance,"Table 8, 50 μM",1.2828
same,Percent Survival,"Table 8, 50 μM",52.5114%
same,Average Absorbance,"Table 8, 60 μM",0.7971
same,Percent Survival,"Table 8, 60 μM",32.6293%
same,Average Absorbance,"Table 8, 70 μM",0.6718
same,Percent Survival,"Table 8, 70 μM",27.5001%
same,Average Absorbance,"Table 9, 10 μM",0.5299
same,Percent Survival,"Table 9, 10 μM",83.1%
same,Average Absorbance,"Table 9, 20 μM",0.6575
same,Percent Survival,"Table 9, 20 μM",103.1096%
same,Average Absorbance,"Table 9, 30 μM",0.497
same,Percent Survival,"Table 9, 30 μM",77.95%
same,Average Absorbance,"Table 9, 40 μM",0.4763
same,Percent Survival,"Table 9, 40 μM",74.69%
same,Average Absorbance,"Table 9, 50 μM",0.3644
same,Percent Survival,"Table 9, 50 μM",57.14%
same,Average Absorbance,"Table 9, 60 μM",0.2814
same,Percent Survival,"Table 9, 60 μM",44.13%
same,Average Absorbance,"Table 9, 70 μM",0.1854
same,Percent Survival,"Table 9, 70 μM",29.07%
CO[C@H]1O[C@H](CO)[C@@H](O)[C@H](O)[C@@H]1O [Methyl alpha-D-Mannopyranoside],IC50,"Homo sapiens, Table 7, linear trend from percent survival vs. concentration data",50.1 µM
same,Average Absorbance,"Table 6, 10 μM",2.4582
same,Percent Survival,"Table 6, 10 μM",104.1125%
same,Average Absorbance,"Table 6, 20 μM",2.4610
same,Percent Survival,"Table 6, 20 μM",104.2311%
same,Average Absorbance,"Table 6, 30 μM",2.1544
same,Percent Survival,"Table 6, 30 μM",91.2456%
same,Average Absorbance,"Table 6, 40 μM",1.1005
same,Percent Survival,"Table 6, 40 μM",46.6096%
same,Average Absorbance,"Table 6, 50 μM",0.6631
same,Percent Survival,"Table 6, 50 μM",28.0844%
same,Average Absorbance,"Table 6, 60 μM",0.9420
same,Percent Survival,"Table 6, 60 μM",39.8967%
same,Average Absorbance,"Table 6, 70 μM",0.8479
same,Percent Survival,"Table 6, 70 μM",35.9112%
same,Average Absorbance,"Table 8, 10 μM",2.6117
same,Percent Survival,"Table 8, 10 μM",106.9098%
same,Average Absorbance,"Table 8, 20 μM",2.4353
same,Percent Survival,"Table 8, 20 μM",99.6889%
same,Average Absorbance,"Table 8, 30 μM",1.7315
same,Percent Survival,"Table 8, 30 μM",70.8789%
same,Average Absorbance,"Table 8, 40 μM",0.6173
same,Percent Survival,"Table 8, 40 μM",25.2691%
same,Average Absorbance,"Table 8, 50 μM",0.4370
same,Percent Survival,"Table 8, 50 μM",17.8886%
same,Average Absorbance,"Table 8, 60 μM",0.5017
same,Percent Survival,"Table 8, 60 μM",20.5371%
same,Average Absorbance,"Table 8, 70 μM",0.5339
same,Percent Survival,"Table 8, 70 μM",21.8552%

# — US7759510B2, “Platinum complexes and methods of use” (University of South Florida, priority 2003, dated 2010)
